{
  "source": "patent US20100210539A1",
  "about": "“USE OF PEPTIDE LL-37 AS A THERAPEUTIC AGENT” (priority 2007, published 2010)",
  "test_system": "drug-resistant Mycobacterium tuberculosis",
  "settings": "peptide 10 micrograms per ml, seven days",
  "data": [
    {"molecule": "CC[C@H](C)[C@H](NC(=O)[C@H](CCCCN)NC(=O)[C@H](CCC(=O)O)NC(=O)[C@H](CCCCN)NC(=O)[C@H](CO)NC(=O)[C@H](CCCCN)NC(=O)[C@H](CCCNC(=N)N)NC(=O)[C@H](Cc1ccccc1)NC(=O)[C@H](Cc1ccccc1)NC(=O)[C@H](CC(=O)O)NC(=O)CNC(=O)[C@H](CC(C)C)NC(=O)[C@@H](N)CC(C)C)C(=O)NCC(=O)N[C@@H](CCCCN)C(=O)N[C@@H](CCC(=O)O)C(=O)N[C@@H](Cc1ccccc1)C(=O)N[C@@H](CCCCN)C(=O)N[C@@H](CCCNC(=N)N)C(=O)N[C@H](C(=O)N[C@H](C(=O)N[C@@H](CCC(N)=O)C(=O)N[C@@H](CCCNC(=N)N)C(=O)N[C@H](C(=O)N[C@@H](CCCCN)C(=O)N[C@@H](CC(=O)O)C(=O)N[C@@H](Cc1ccccc1)C(=O)N[C@@H](CC(C)C)C(=O)N[C@@H](CCCNC(=N)N)C(=O)N[C@@H](CC(N)=O)C(=O)N[C@@H](CC(C)C)C(=O)N[C@H](C(=O)N1CCC[C@H]1C(=O)N[C@@H](CCCNC(=N)N)C(=O)N[C@H](C(=O)N[C@@H](CCC(=O)O)C(=O)N[C@@H](CO)C(N)=O)[C@@H](C)O)C(C)C)[C@@H](C)CC)C(C)C)[C@@H](C)CC", "note": "[LL-37]", "values": [
      {"measurement": "% inhibition", "result": 0.0, "unit": "%"}
    ]}
  ]
}
